The values that follow come from the METLIN SMRT retention time set (Domingo-Almenara et al. 2019).

A short description of the data set: gradient 5% acetonitrile 3 min, to 50% in 2 min, to 85% in 15 min, held 3 min, 100 µL/min. The note with it: column: Zorbax Extend-C18 2.1 x 50 mm; eluents: water / acetonitrile, 0.1% formic acid. Summed up:
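Retention times of pure standards were taken from adduct peaks that were selected by computer and manually inspected. Over 3 months, mixtures of ~100 molecules were run by HPLC–quadrupole time-of-flight mass spectrometry in positive and negative ionization mode. The Zorbax Extend-C18 column (2.1 × 50 mm, 1.8 μm) ran at 100 μL/min in water and acetonitrile, each containing 0.1% formic acid, with 40 μL dead volume and 900 μL dwell volume.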
Turning to `CCS(=O)(=O)Nc1ccc(-c2noc(COc3ccc(OC)cc3)n2)cc1`, the RP-LC retention time came to 919 s.

`Cc1nnc(-c2coc(S(=O)(=O)N3CCOCC3)c2)o1` showed an RP-LC retention time of 654 s. To `CCN(CC)c1ccc(CN(C(=O)Cc2coc3ccc(C)cc23)C2CCS(=O)(=O)C2)cc1` (centres undefined) belongs 706 s. `CN(Cc1ccco1)C(=O)CC1CCN(C(=O)c2cc3ccccc3[nH]2)CC1`: the RP-LC retention time was 826 s. `CC(C)n1cc(C2=CCN(C(=O)NC3CCCC3)CC2)c2cccnc21` had an RP-LC retention time of 878 s. Under `Cc1ccc(NC(=O)C2CCN(S(C)(=O)=O)c3cc(Cl)ccc3O2)cc1C` (centres undefined) stands 1090 s. To `O=C(Cn1nc(-c2ccco2)ccc1=O)NCc1ccco1` belongs 628 s. As for `Cc1ccc(Cl)cc1N1C(=O)CN(S(C)(=O)=O)CC1(C)C(=O)NC1CCCCC1` (centres undefined), the RP-LC retention time was 880 s. Under `CC(C)C(=O)Nc1ccc2c(c1)nc(CN1CCCC1)n2C(C)C` stands 602 s; under `CCn1c(CCNC(=O)c2ccc(F)c(Cl)c2)nc2cccnc21`, 676 s.

Molecule `CC(=O)N1c2ccc(S(=O)(=O)N3CCCCC3)cc2CC1C(=O)NC1CCCCC1` (centres undefined) registered an RP-LC retention time of 905 s. `COc1ccc(CNC(=O)CN2CCc3[nH]c4c(C)cc(C)cc4c(=O)c3C2)cc1` came in with an RP-LC retention time of 629 s. Under `CCOC(=O)C1CCC(CNC(=O)Nc2ccc(-c3nc(-c4ccc(C)cc4C)co3)cc2)CC1` (centres undefined) stands 1240 s; under `CCOc1ccc(-n2c(=O)c3sccc3n(Cc3nc(-c4ccccc4)no3)c2=O)cc1`, 1010 s; under `Cc1c(Cl)cccc1NC(=O)/C=C/c1ccccc1`, 947 s.

In turn, `Cc1cc(C)cc(NC(=O)C2CCN(S(=O)(=O)c3ccc4c(c3)NC(=O)C(C)O4)CC2)c1` (centres undefined) yielded an RP-LC retention time of 903 s. `CS(=O)(=O)c1ccc(-c2cccc(NC(=O)Cc3cccs3)c2)nn1` yielded an RP-LC retention time of 707 s. Under `CCN1CCN(C(=O)c2cc3n(n2)CC(C)(C(=O)NC2CCCCC2)N(C)C3=O)CC1` (centres undefined) stands 584 s; under `CCN(CC)S(=O)(=O)c1ccc2nc(N3CCN(Cc4ccc5c(c4)OCO5)CC3)cnc2c1`, 685 s. Under `O=C([C@@H]1C[C@H](F)CN1S(=O)(=O)c1ccc(Br)cc1)N1CCCCC1` stands 865 s; under `O=S(=O)(Nc1cccc(F)c1)c1ccc(-c2nnc(C3CCC3)o2)o1`, 856 s. Regarding `CC(C)N1CCN(S(=O)(=O)c2cc(-c3nnc(C4CC4)o3)co2)CC1`, the RP-LC retention time is 599 s. `CN1CCC(OC2CCN(C(=O)c3ccc(Cl)cc3)CC2)CC1` gave an RP-LC retention time of 601 s. Take `COc1ccc(-c2cc3c(=O)n(Cc4ccc(F)cc4)ccn3n2)cc1OC`: the RP-LC retention time stood at 913 s. Regarding `COCC(C)NC(=O)C(=O)Nc1ccc2c(c1)OCCO2` (centres undefined), the RP-LC retention time was 685 s. To `Cc1ccccc1NC(=O)C1CCCN(S(=O)(=O)c2cc(-c3noc(C4CCC4)n3)cs2)C1` (centres undefined) belongs 1130 s; to `Cc1cccc(C(=O)N2CCC3(CC2)NC(=O)c2cc(C)ccc2N3C)c1`, 805 s; to `CC(C(=O)Nc1ccccc1C(F)(F)F)n1cnc2nc3c(cc2c1=O)CCCC3` (centres undefined), 768 s. `CC(C)NC(=O)C1CCCN(c2nc3ncn(CC(=O)Nc4cc(F)cc(F)c4)c(=O)c3s2)C1` (centres undefined) came in with an RP-LC retention time of 747 s. To `O=c1ccc(N2CCC(NS(=O)(=O)c3ccc(F)c(F)c3)CC2)nn1CC1CC1` belongs 834 s; to `O=C(NC1CCN(c2cc(-c3cccs3)[nH]n2)C1)c1ccccn1` (centres undefined), 667 s; to `Cc1cc(C)n(C(C[N+](=O)[O-])c2ccc(Cl)cc2Cl)n1` (centres undefined), 1110 s. `CN(C)S(=O)(=O)c1ccc(C(=O)OCc2cc(-c3ccc(Cl)cc3)on2)cc1` had an RP-LC retention time of 1090 s.

`CCCOC(=O)C1=CN(Cc2ccccc2)S(=O)(=O)N=C1C` had an RP-LC retention time of 1020 s.

Turning to `COCCNS(=O)(=O)c1cc(-c2[nH]ncc2C(=O)N2CCCC2)oc1C`, the RP-LC retention time was 591 s. For the molecule `Cc1ccc(CNC(=O)N(C)CC2CCOCC2)cc1`, the RP-LC retention time was found to be 713 s. `O=C(c1ccc2c(c1)OCO2)N1CCN(c2nc(CN3CCCCC3)cs2)CC1` came in with an RP-LC retention time of 620 s. The molecule `COc1ccccc1NC(=O)c1cn(CC2CCCO2)cc2c(=O)n(-c3ccccc3)nc1-2` (centres undefined) gave an RP-LC retention time of 983 s. Turning to `O=C(CCn1nnc2cc(-c3noc(COc4ccc(Cl)cc4)n3)ccc21)N1CCCC1`, the RP-LC retention time came to 942 s. To `COc1ccc(C2CCN(C(=O)c3ccoc3)CC2)cc1` belongs 853 s.

On to `COc1ccc(C(=O)NCc2c(C)noc2C)cc1F`, for which the RP-LC retention time worked out at 693 s.

Molecule `COc1ccc(-c2ccnc3nc(CCc4ccc(OC)c(OC)c4)nn23)c(F)c1` came in with an RP-LC retention time of 867 s. Regarding `c1ccc(-c2nc(-c3ccncc3)no2)c(OC2CCN(Cc3ccsc3)C2)c1` (centres undefined), the RP-LC retention time amounted to 679 s. In turn, `CC(C)Oc1ccccc1Cn1c(=O)oc2ccccc21` returned an RP-LC retention time of 1010 s. The molecule `O=C(NCc1ccco1)C1CC(=O)N(c2ccc3c(c2)CCN3C(=O)C2CCC2)C1` (centres undefined) showed an RP-LC retention time of 734 s.

On to `CN(C)C/C=C/C(=O)Nc1cc2c(Nc3ccc(F)c(Cl)c3)ncnc2cc1O[C@H]1CCOC1`, for which the RP-LC retention time is 632 s. On to `NS(=O)(=O)c1ccc(CCNCc2ccc(-c3cc(Cl)ccc3Cl)o2)cc1`, for which the RP-LC retention time was found to be 712 s. Under `Cc1nnc(NC(=O)CCc2csc(NC(=O)c3ccco3)n2)s1` stands 630 s; under `COc1ccc(NC(=O)Cn2nc(N3CCOCC3)c3ccccc3c2=O)c(OC)c1`, 766 s. Under `CCN1c2cc(Cl)ccc2C(=O)NC12CCN(C(=O)Nc1ccc(OC)cc1)CC2` stands 895 s. On to `CCC(C)NC(=O)c1nc(Nc2cccc(C)c2)c2ccccc2n1` (centres undefined), for which the RP-LC retention time came out at 819 s. Under `CCc1ccc(-c2csc(Nc3cc(C)ccn3)n2)cc1` stands 1040 s; under `CC(C)CC(=O)Nc1ccc2c(c1)nc(CN1CCN(C(=O)c3ccco3)CC1)n2C`, 620 s; under `Cc1ccccc1CNS(=O)(=O)c1cn(C(C)C)c2ncccc12`, 960 s. In turn, `CS(=O)(=O)N(Cc1ccncc1)C1CN(C(=O)C2(c3ccccc3)CC2)C1` gave an RP-LC retention time of 610 s. To `Cc1oc(-c2ccc(NC(=O)c3ccc(N(C)C)cc3)cc2)nc1Cn1cccn1` belongs 875 s. As for `Cc1ccc(NC(=O)CN2C(=O)C3CCCCN3c3ccc(S(=O)(=O)N(C)C)cc32)nc1` (centres undefined), the RP-LC retention time worked out at 828 s. Under `COc1ccc2c(c1)C1(CCN(S(=O)(=O)c3c(C)noc3C)C1)C(=O)N2C` (centres undefined) stands 877 s. Regarding `CCN(CC)CCCNC(=O)C(C)n1c(=O)c(C(F)(F)F)nc2cc(C)c(C)cc21` (centres undefined), the RP-LC retention time turned out to be 740 s. As for `O=C(NC1CC1)[C@@H]1C[C@H](Oc2ccccc2)CN1C(=O)C1CCCC1`, the RP-LC retention time came out at 750 s. To `CCCN1CCN(C(=O)C2Cc3cc(S(=O)(=O)N(CC)CC)ccc3N2C(C)=O)CC1` (centres undefined) belongs 610 s; to `c1cc(N2CCSCC2)ncc1-c1noc(CN2CCN(C3CCCCC3)CC2)n1`, 655 s.

Molecule `CN1C(=O)CCc2cc(NS(=O)(=O)Cc3ccc(Cl)cc3)ccc21` registered an RP-LC retention time of 788 s. `Cc1nc(N2CCOCC2)c2c(C(=O)Nc3ccccc3)c(C)oc2n1` showed an RP-LC retention time of 778 s. To `O=C(NCc1ccccc1Br)C1CCN(c2cnc3nccnc3c2)CC1` belongs 739 s; to `CCC(=O)N1CCc2cc(N3CC(C(=O)NCC4CC4)CC3=O)ccc21` (centres undefined), 652 s. On to `CSc1cccc(NC(=O)Cc2csc(SCC(=O)Nc3ccc(C)cc3)n2)c1`, for which the RP-LC retention time is 900 s. In turn, `O=C(c1cc(-c2cccnc2)n[nH]1)N1CCN(C(=O)C2CC2)CC1` displayed an RP-LC retention time of 565 s. In turn, `CCC(=O)NCc1nc2c(n1CC)CN(C(=O)c1ccc(Br)cc1)CC2` yielded an RP-LC retention time of 606 s. `CCn1cnc(S(=O)(=O)N2CCC(C(=O)Nc3nccs3)CC2)c1` came in with an RP-LC retention time of 636 s. On to `Cc1ccc(Cl)cc1S(=O)(=O)NCC(=O)N1CCOC(c2ccccc2)C1` (centres undefined), for which the RP-LC retention time is 910 s. `Cc1csc(C(=O)N2CC3CC2C(=O)O3)c1` (centres undefined) had an RP-LC retention time of 624 s. `Cc1ccc2c(c1)N(S(C)(=O)=O)CCC(C(=O)NCCC1=CCCCC1)O2` (centres undefined): the RP-LC retention time came out at 993 s. In the case of `O=C(Nc1ccc2c(c1)OCO2)C(=O)c1cn(CC(=O)N2CCCCC2)c2ccccc12`, the RP-LC retention time came to 1000 s. With `CCOC(=O)C1CCN(C(=O)C2c3ccccc3C(=O)N(C)C2c2cccs2)CC1` (centres undefined), the RP-LC retention time worked out at 810 s. Under `Cc1ccc(F)c(NS(=O)(=O)c2cc(-c3[nH]ncc3C(=O)N(C)C)oc2C)c1` stands 676 s. The molecule `O=C(CSc1ccc(N2CCCC(C(=O)NC3CC3)C2)nn1)NCc1cccs1` (centres undefined) yielded an RP-LC retention time of 593 s. With `COc1ccc(OC)c(S(=O)(=O)N2CCC(n3cnc4ccc(C)cc4c3=O)CC2)c1`, the RP-LC retention time was 881 s. `COC(=O)C(Cc1c[nH]c2ccccc12)NC(=O)c1ccc(Br)cc1` (centres undefined): the RP-LC retention time was 931 s.
